Laboratory results from PubChem BioAssay AID2769 (The Scripps Research Institute Molecular Screening Center, 2010).

The molecules below were run against VIM-2 metallo-beta-lactamase (Pseudomonas aeruginosa) (UniProt Q9K2N0) (assay: inhibition of VIM-2 nitrocefin hydrolysis – biochemical, epi-absorbance, dose response, late-stage follow-up (AID 2769)). Conditions: purified VIM-2, nitrocefin absorbance hydrolysis.
Molecule Cc1cc[c]([Hg+])cc1 has an IC50 of 814 nM.
Work on O=C(O)c1cc[c]([Hg][Cl])cc1 yielded an IC50 of 2590 nM.
With [Hg+][c]1ccccc1 the IC50 was 1000 nM.
For CC(=O)Nc1cc[c]([Hg+])cc1, the IC50 was 2580 nM.
In the case of O=C(O)c1ccc[c]([Hg+])c1, the IC50 is reported as 817 nM.
